Reference: patent publication US12637427B2, “ALDH-2 inhibitor compounds and methods of use” (Amygdala Neurosciences, Inc., priority 2022, dated 2026)

Legend:
MAO-A = molecular target: T1, MAO-A (Homo sapiens, UniProt P21397); experiment: MAO-A inhibition assay; type: biochemical; details: 20 min pre-incubation; 10 μM = highest concentration tested; read-out: Enzymatic Assays IC50 MAO-A
T1 sequence (P21397 1-527): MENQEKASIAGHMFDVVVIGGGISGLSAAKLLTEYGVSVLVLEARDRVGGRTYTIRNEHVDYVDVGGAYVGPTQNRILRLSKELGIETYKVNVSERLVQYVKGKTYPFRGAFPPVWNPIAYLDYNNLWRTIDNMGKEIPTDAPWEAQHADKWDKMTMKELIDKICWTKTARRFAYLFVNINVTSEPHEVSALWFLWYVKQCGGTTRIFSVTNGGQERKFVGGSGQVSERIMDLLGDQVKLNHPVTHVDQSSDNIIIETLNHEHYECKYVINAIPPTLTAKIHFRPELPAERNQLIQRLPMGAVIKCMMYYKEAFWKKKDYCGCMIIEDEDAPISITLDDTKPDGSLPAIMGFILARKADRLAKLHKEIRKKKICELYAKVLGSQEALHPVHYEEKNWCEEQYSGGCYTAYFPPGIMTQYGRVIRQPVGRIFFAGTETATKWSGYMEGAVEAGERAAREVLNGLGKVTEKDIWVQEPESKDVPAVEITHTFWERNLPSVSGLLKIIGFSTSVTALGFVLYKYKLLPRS
Description: D. MAO-A and MAO-B inhibition assays: MAO assays included luminogenic MAO substrate, reaction buffers, Luciferin Detection, and a reconstitution buffer with esterase. The MAO reaction mixture used in the assay included microsome contained MAO-A (2 μg) or MAO-B (10 μg), 160 μM substrate for MAO-A or 16 μM substrate for MAO-B, MAO-A buffer (100 mM Hepes buffer, pH 7.5, 5% glycerol) or MAO-B buffer (100 mM Hepes, pH 7.5, 5% glycerol, 10% dimethyl sulfoxide) in a final volume of 30 μL. After 20 minutes of pre-incubation of the MAO-A or MAO-B enzyme with the test ALDH-2 inhibitor compound, the reaction was initiated by adding enzyme substrate and the […] reaction was allowed to proceed for 60 minutes. Reconstituted Luciferin Detection Reagent (30 μL) was then added is added to simultaneously stop the MAO reaction and convert the methyl ester derivative to luciferin and produce light. The amount of light produced is directly proportional to the activity of MAO. The mixtures were further incubated for 20 minutes and activity of the enzyme was determined using Perkin-Elmer Envision Reader.

recombinant human ALDH-2 = molecular target: T2, recombinant human ALDH-2 (Homo sapiens, UniProt P05091); experiment: ALDH-2 inhibition assay; type: biochemical; details: 60 min pre-incubation; 10 μM = highest concentration tested; read-out: Enzymatic Assays IC50 ALDH2
T2 sequence (P05091 18-517): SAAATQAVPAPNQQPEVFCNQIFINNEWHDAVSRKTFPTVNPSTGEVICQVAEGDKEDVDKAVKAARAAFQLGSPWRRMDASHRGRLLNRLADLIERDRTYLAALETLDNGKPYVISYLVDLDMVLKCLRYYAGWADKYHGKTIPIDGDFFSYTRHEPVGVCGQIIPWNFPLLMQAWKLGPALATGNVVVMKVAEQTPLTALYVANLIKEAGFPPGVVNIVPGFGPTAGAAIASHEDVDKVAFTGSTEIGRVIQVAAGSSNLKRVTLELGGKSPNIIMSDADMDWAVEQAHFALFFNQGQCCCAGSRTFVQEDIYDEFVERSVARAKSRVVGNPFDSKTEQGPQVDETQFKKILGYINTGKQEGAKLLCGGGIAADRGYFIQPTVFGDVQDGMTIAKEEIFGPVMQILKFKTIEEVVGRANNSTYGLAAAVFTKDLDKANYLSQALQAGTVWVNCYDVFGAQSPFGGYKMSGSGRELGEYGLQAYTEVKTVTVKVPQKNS
Description: A. ALDH-2 inhibition assay: The ALDH-2 reaction mixture used in the assay contained 125 μM formaldehyde, 75 μM NAD+, 20 mM NaCl, 10 mM MgCl2, and 20 nM recombinant human ALDH-2 in 50 mM Hepes buffer, pH 7.5 in a final volume of 10 μL using 384-well Corning 3820 plates. After 60 min of pre-incubation of the test ALDH-2 inhibitor compound with ALDH-2, the reaction was started by adding NAD+ and formaldehyde and the assay reaction mixture was allowed to proceed for 60 minutes. Activity of the ALDH-2 enzyme was determined by monitoring NADH formation using Perkin-Elmer Envision Reader with excitation and emission wavelengths set at 340 and 460 nm, respectively.

| IC50 (MAO-A) [nM] | IC50 (recombinant human ALDH-2) [nM] | SMILES |
| --- | --- | --- |
| > 10000 | 78 | Cc1cccc(Cl)c1C(=O)NCc1ccc(-c2cccc(=O)[nH]2)cc1 [(1a), 2-Chloro-6-methyl-N-(4-(6-oxo-1,6-dihydropyridin-2-yl)benzyl)benzamide] |
| > 10000 | 137 | O=C(NCc1ccc(-c2cccc(=O)[nH]2)cc1)c1ccccc1Cl [(1b), 2-Chloro-N-(4-(6-oxo-1,6-dihydropyridin-2-yl)benzyl)benzamide] |
| > 10000 | 128 | Cc1nccc(Cl)c1C(=O)NCc1ccc(-c2cccc(=O)[nH]2)cc1 [(1c), 4-Chloro-2-methyl-N-(4-(6-oxo-1,6-dihydropyridin-2-yl)benzyl)nicotinamide] |
| > 10000 | 28 | Cc1nccc(Br)c1C(=O)NCc1ccc(-c2[nH]c(=O)ccc2F)cc1 [(1g), 4-Bromo-N-(4-(3-fluoro-6-oxo-1,6-dihydropyridin-2-yl)benzyl)-2-methylnicotinamide] |
| > 10000 | 10 | Cc1cccc(Cl)c1C(=O)NCc1ccc(-c2cccc(=O)[nH]2)nc1 [(1k), 2-Chloro-6-methyl-N-((6′-oxo-1′,6′-dihydro-[2,2′-bipyridin]-5-yl)methyl)benzamide] |
| > 10000 | 118 | O=C(NCc1ccc(-c2cccc(=O)[nH]2)nc1)c1ccccc1Cl [(1l), 2-chloro-N-((6′-oxo-1′,6′-dihydro-[2,2′-bipyridin]-5-yl)methyl)benzamide] |
